Source: patent US3968207A, “Method of controlling fleas and ticks on cats and dogs” (priority 1975, dated 1976)
Where “and” joins values, the source holds several entries; their conditions need not be identical. Equal entries are not always repeated. Where two headings read alike, the source gives them in different places.

Key:
Assay type in all cases: in vivo
Ctenocephalides felis = assay: 2% powder for control of flea infestations on dogs; details: for Number of Dogs on Which Fleas were Controlled: 20 mg/kg 2% powder, of 20; for Average Dead in Treated / No. of Dead Fleas Recovered in 48 Hrs.: 20 mg/kg; for No. of Dead Fleas Recovered in 48 Hrs.: Trial 1, individual dogs
Experimental: An experiment was carried out to determine the activity of O,O,O',O'-tetramethyl O,O'-thiodi-p-phenylene phosphorothioate 2% powder for the control of Ctenocephalides felis infestations on dogs. A group of 40 dogs of mixed breeds were obtained from a licensed laboratory animal dealer and housed in individual cages. The 2% powder was formulated from a 25% dust concentrate containing […] O,O,O',O'-tetramethyl O,O'-thiodi-p-phenylene phosphorothioate, 24% celite 209 and 50% acidic kaolin. Talc was used to dilute the concentrate to 2% active ingredient. Each dog was infested with 100 1 day old adult C. felis 72 hours prior to treatment and reinfested on a weekly basis for 6 weeks beginning 7 days after treatment. Each dog was treated with 20 mg. actual drug per kg. body weight formulated as a 2% powder. Five or more dogs were treated with a blank powder and used as infested controls. Table XV summarizes average dead fleas in treated versus average dead fleas in control.

fleas and ticks = assay: Control of fleas and ticks (general statement); details: topically and systemically
Dermacentor variabilis = assay: Tick control on dogs fed medicated diet, Table V; details: for % Control of Adult Engorged Female Ticks D.V.: dogs
Experimental: (§1) Five groups of two mongrel dogs each were fed a daily dose of 0, 6.25, 25, 100 or 400 mg. O,O,O',O'-tetramethyl O,O'-thiodi-p-phenylene phosphorothioate/kg. body weight in Agway Big Red Dog Meal. Dogs eating less than 75% of the food were given a corrected dose by gelatin capsule to equal 100%. Medication began 1 day after infesting each dog with 100 adult Ctenocephalides felis and 2 days before infesting each dog with 10 Dermacentor variabiles and 10 Rhipicephalus sanguineus adults.

Rhipicephalus sanguineus = assay: Tick control on dogs fed medicated diet, Table V; details: for % Control of Adult Engorged Female Ticks R.S.: dogs
Experimental: as §1

Amblyomma americanum = assay: Control of adult ticks on rabbits, Table II; details: for mortality at 0.05 % / mortality at 0.2 % / mortality at 0.4 %: Amblyomma americanum, topical, 96 h, 4 days after treatment
Experimental: The midsection of each host rabbit is clipped, and a rubber capsule is cemented to the clipped portion of the skin. After a 24-hour drying period, the 10 ticks are placed in the capsule and allowed to attack the host for 72 hours. On the day of treatment, each capsule is sprayed with 2-3 cc. of the test compound, O,O,O',O'-tetramethyl O,O'-thiodi-p-phenylene phosphorothioate. Sufficient rabbits were used to test at concentrations of 0.05%, 0.20% and 0.40% (w/w), respectively.
Mortality was noted 4 days after treatment. On those rabbits where female ticks survived, five untreated male ticks were introduced and the ticks allowed to mate. Fully engorged females were then removed from the capsule and placed in petri dishes for oviposition. Effect of fecundity is then determined by comparing the percent of eggs laid and the percent of eggs which hatch in the treated versus the controls.

[1] = 400 mg/kg in feed, end of experiment (8 days)

With `COP(=S)(OC)Oc1ccc(Sc2ccc(OP(=S)(OC)OC)cc2)cc1` [O,O,O',O'-tetramethyl O,O'-thiodi-p-phenylene phosphorothioate] the “Number of Dogs on Which Fleas were Controlled” value (from here on “Number of Dogs”) (Ctenocephalides felis; Experiment 1, week 6) was 5 dogs, the “Number of Dogs” value (Ctenocephalides felis; Experiment 2, week 0) was 20 dogs and the “Number of Dogs” value (Ctenocephalides felis; Experiment 2, week 1) was 20 dogs. The “Number of Dogs” value (Ctenocephalides felis; Experiment 2, week 2) was 20 dogs, the “Number of Dogs” value (Ctenocephalides felis; Experiment 2, week 3) was 20 dogs and the “Number of Dogs” value (Ctenocephalides felis; Experiment 2, week 4) was 20 dogs. The “Number of Dogs” value (Ctenocephalides felis; Experiment 2, week 5) was 18 dogs, the “Number of Dogs” value (Ctenocephalides felis; Experiment 2, week 6) was 13 dogs and the “Average Dead in Treated” value (Ctenocephalides felis; Test 1, week 0, control 6.2) was 31.5. For the same molecule, the “Average Dead in Treated” value (Ctenocephalides felis; Test 1, week 2, control 4.8) was 40.4, the “Average Dead in Treated” value (Ctenocephalides felis; Test 1, week 6, control 3.2) was 18.0 and the “Average Dead in Treated” value (Ctenocephalides felis; Test 2, week 0, control 11.8) was 43.5. For the same molecule, the “No. of Dead Fleas Recovered in 48 Hrs.” value (Ctenocephalides felis; week 0) was 18 and 44 and 41 and 34 and 26 and 38 and 28 and 50 and 21 and 22 and 40 and 24 and 25, the “No. of Dead Fleas Recovered in 48 Hrs.” value (Ctenocephalides felis; week 1) was 30 and 44 and 53 and 43 and 14 and 37 and 26 and 74 and 49 and 57 and 33 and 31 and 38 and the “No. of Dead Fleas Recovered in 48 Hrs.” value (Ctenocephalides felis; week 2) was 54 and 39 and 55 and 40 and 27 and 64 and 31 and 44 and 38 and 32 and 43 and 50 and 42. The “No. of Dead Fleas Recovered in 48 Hrs.” value (Ctenocephalides felis; week 3) was 37 and 36 and 47 and 43 and 35 and 42 and 33 and 63 and 44 and 60 and 29, the “No. of Dead Fleas Recovered in 48 Hrs.” value (Ctenocephalides felis; week 4) was 43 and 46 and 48 and 25 and 8 and 21 and 35 and 61 and 24 and 34 and 6 and 26 and 42 and the “No. of Dead Fleas Recovered in 48 Hrs.” value (Ctenocephalides felis; week 5) was 35 and 63 and 48 and 16 and 5 and 21 and 11 and 36 and 14 and 46 and 39. The “No. of Dead Fleas Recovered in 48 Hrs.” value (Ctenocephalides felis; week 6) was 5 and 49 and 63 and 10 and 3 and 1 and 23 and 19 and 6 and 7 and 27 and 35, the “controlling fleas and ticks” value (fleas and ticks) was “highly effective” and the “effect against adult ticks” value (Dermacentor variabilis; 6.25 mg/kg in feed) was “ineffective”. For the same molecule, the “effect against adult ticks” value (Dermacentor variabilis; 25 mg/kg in feed) was “ineffective”, the condition of ticks (Dermacentor variabilis; 100 mg/kg in feed, some ticks on one dog) was “discolored and stunted” and the “condition of adult ticks in capsules” value (Dermacentor variabilis; [1]) was “either dead or moribund”. For the same molecule, the “% Control of Adult Engorged Female Ticks D.V.” value (Dermacentor variabilis; 6.25 mg/kg in feed) was 0%, the “% Control of Adult Engorged Female Ticks D.V.” value (Dermacentor variabilis; 25 mg/kg in feed) was 10% and the “% Control of Adult Engorged Female Ticks D.V.” value (Dermacentor variabilis; 100 mg/kg in feed) was 30%. The “% Control of Adult Engorged Female Ticks D.V.” value (Dermacentor variabilis; 400 mg/kg in feed) was 100%, the “effect against adult ticks” value (Rhipicephalus sanguineus; 6.25 mg/kg in feed) was “ineffective” and the “effect against adult ticks” value (Rhipicephalus sanguineus; 25 mg/kg in feed) was “ineffective”. For the same molecule, the condition of ticks (Rhipicephalus sanguineus; 100 mg/kg in feed) was “engorged and detached normally”, the “condition of two female ticks on the ear of one dog” value (Rhipicephalus sanguineus; 400 mg/kg in feed, end of experiment) was “appeared normal, though not completely engorged” and the “condition of adult ticks in capsules” value (Rhipicephalus sanguineus; [1]) was “either dead or moribund”. The “% Control of Adult Engorged Female Ticks R.S.” value (Rhipicephalus sanguineus; 6.25 mg/kg in feed) was 20%, the “% Control of Adult Engorged Female Ticks R.S.” value (Rhipicephalus sanguineus; 25 mg/kg in feed) was 0% and the “% Control of Adult Engorged Female Ticks R.S.” value (Rhipicephalus sanguineus; 100 mg/kg in feed) was 50%. For the same molecule, the “% Control of Adult Engorged Female Ticks R.S.” value (Rhipicephalus sanguineus; 400 mg/kg in feed) was 100%, the “Eggs Hatched (%)” value (Amblyomma americanum; 0.05% (w/w)) was 90% and the “Eggs Hatched (%)” value (Amblyomma americanum; 0.20% (w/w)) was 50%. The Control of ticks (Amblyomma americanum; 0.20% and 0.40% (w/w)) was “effectively controls amblyomma ticks by killing the adult males and some females and rendering the female ova non-viable”, the “Eggs Hatched (%)” value (Amblyomma americanum; 0.40% (w/w)) was 1% and the mortality at 0.05 % (Amblyomma americanum; 0.05% (w/w), read-out: Deaths (%) Females) was 10%. The mortality at 0.05 % (Amblyomma americanum; 0.05% (w/w), read-out: Deaths (%) Males) was 70%, the mortality at 0.2 % (Amblyomma americanum; 0.20% (w/w), read-out: Deaths (%) Females) was 40% and the mortality at 0.2 % (Amblyomma americanum; 0.20% (w/w), read-out: Deaths (%) Males) was 100%. The mortality at 0.4 % (Amblyomma americanum; 0.40% (w/w), read-out: Deaths (%) Females) was 50% and the mortality at 0.4 % (Amblyomma americanum; 0.40% (w/w), read-out: Deaths (%) Males) was 100%.
